From patent US20230381774A1, “MICROFLUDIC LAB-ON-CHIP DEVICE, MATRIX, SMALL MOLECULES AND THREE-DIMENSIONAL SPHEROIDS FOR CELL REPROGRAMMING” (The Regents of the University of California, priority 2022, published 2023)
“Also recorded” adds a separate entry of the source.

What was measured:
[1] = tested on: primary human neonatal dermal fibroblasts (hNDFs); assay: Spatial iN reprogramming in 3D spheroids (Tuj1 staining); assay type: cell-based; conditions: 3 days of reprogramming, relative to no-treatment controls
Text: For the reduction to practice, primary human neonatal dermal fibroblasts (hNDFs) were transduced with doxycycline (Dox)-inducible lentiviral vectors for the BAMN factors. After Dox induction in monolayer to ensure unbiased activation of the transgenes, hNDFs were either plated onto Matrigel-coated cover slips as 2D controls or centrifuged in microwells to form 3D aggregates, or “spheroids” (FIG. 9A). The expression of neuron-specific β-tubulin III (Tuj1) was used as a marker of neuronal fate, as is convention. Tuj1 expression began earlier in spheroids than in 2D culture, appearing as early as day 2 (two days after Dox induction and one day after spheroid formation) (FIG. 9BC). To evaluate relative reprogramming efficiency, spheroids were replated onto Matrigel-coated cover slips after three days without enzymatic disaggregation.
Direct reprogramming involves both disruption of the existing regulatory network (generally early on) and establishment of another. The initial nonspecific disruption is often mechanistically associated with cell cycle regulation, cell senescence, chromatin inactivation, and genome stability. To assess the impact of mechanobiological changes associated with spheroid culture on direct reprogramming, primary human neonatal dermal fibroblasts (hNDFs) were transduced with doxycycline (dox)-inducible lentiviral vectors for the BAMN factors. […]

[2] = tested on: BAM-transduced fibroblasts; assay: iN reprogramming of BAM-transduced fibroblasts with chemical/siRNA treatment and microfluidic squeezing (Tuj1 staining, day 7); assay type: cell-based, mouse; conditions: for iN reprogramming efficiency: agent alone without squeezing, vs control, Bix01294 1 μM, JIB-04 100 nM, Decitabine 0.5 μM, 24 hours; for increase of iN conversion: alone, at its optimal concentration; for nuclear deformation-induced iN reprogramming efficiency: pre-treatment followed by squeezing in 7-μm microchannels, vs squeezed-only group
Description: Fibroblasts were isolated from ear tissues of adult (1 month-old) C57BL/6 mice, Tau-EGFP reporter mice (Jackson Laboratory, 004779) and R26-M2rtTA;Col1a1-tetO-H2B-GFP compound mutant mice (Jackson Laboratory, 016836), and expanded in fibroblast medium: DMEM (Gibco, 11965), 10% fetal bovine serum (FBS; Gibco, 26140079) and 1% penicillin/streptomycin (GIBCO, 15140122). For all experiments, passage-2 cells were used and synchronized upon reaching 80% confluency using DMEM with 1% FBS for 24 hours before the transduction with viruses containing BAM constructs. The following day (day 0) the medium was changed to mouse embryonic fibroblasts (MEF) medium containing doxycycline (2 ng/ml, Sigma) to initiate the expression of the transgenes and thus, reprogramming. After 6 hours, transduced fibroblasts were passaged, and either subjected to microfluidic deformation using microchannels of various widths. Cells were then seeded onto glass slides coated with 0.1 mg/mL fibronectin (ThermoFisher, 33016015) overnight at a density of 3,000 cells/cm^2. Twenty-four hours later (day 1), cells were cultured in N2B27 medium: DMEM/F12 (Gibco, 11320033), N-2 supplement (Gibco, 17502048), B-27 supplement (Gibco, 17504044), 1% penicillin/streptomycin, and doxycycline (2 ng/ml), and half medium changes were performed every 2 days. On day 7 after microfluidic deformation, cells were fixed and stained for Tuj1 to determine the reprogramming efficiency. iN cells were identified based on positive Tuj1 staining and a neuronal morphology. The reprogramming efficiency was determined as the percentage of iN cells on day 7 relative to the number of the cells initially seeded. For long-term studies where maturation and functionality of the iN cells were examined, cells were kept in culture for 5 weeks. Reprogramming of iPSC from wild-type fibroblasts was performed as described previously^18.
To determine the role of H3K9 methylation in microfluidic device-induced iN reprogramming, BAM-transduced fibroblasts were treated with the H3K9 methyltransferase inhibitor Bix-01294 (Cayman chemical, 13124) or demethylase inhibitor JIB-04 (Cayman chemical, 15338) at the indicated concentrations for 24 hours prior to introduction into the microdevice. Parallel conditions with DMSO served as a control. The iN reprogramming efficiency was determined via Tuj1 staining 7 days after squeezing.
To determine the involvement of ion channels in microfluidic device-induced iN reprogramming, calcium channel blocker Amlodipine (Cayman chemical, 14838), potassium channel blocker Quinine (Cayman chemical, 23958) and sodium channel blocker procainamide (Cayman chemical, 24359) were used to inhibit calcium, potassium, and sodium ion channels, respectively. BAM-transduced fibroblasts were treated with small molecule blockers at the indicated concentrations for 12 hours prior to being introduced into the microfluidic device. Parallel conditions with DMSO served as a control. The iN reprogramming efficiency was determined via Tuj1 staining 7 days after squeezing.

H3K9me3 = H3K9me3 level in fibroblasts (immunostaining); assay type: cell-based, mouse; conditions: for H3K9me3 level: agent alone
Description: Samples collected for immunofluorescence staining at the indicated time points were washed once with PBS and fixed in 4% paraformaldehyde for 15 minutes. Samples were washed three times with PBS for 5 minutes each and permeabilized using 0.5% Triton X-100 for 10 minutes. After three subsequent PBS washes, samples were blocked with 5% normal donkey serum (NDS; Jackson Immunoresearch, 017000121) in PBS for 1 hour. Samples were incubated with primary antibodies (Supplementary Table S1 in Song et al.) in antibody dilution buffer (1% normal donkey serum (NDS)+0.1% Triton X-100 in PBS) for either 1 hour or overnight at 4° C. followed by three PBS washes and a 1-hour incubation with Alexa Fluor® 488- and/or Alexa Fluor® 546-conjugated secondary antibodies (Molecular Probes). Nuclei were stained with DAPI in PBS for 10 minutes. Epifluorescence images were collected using a Zeiss Axio Observer Z1 inverted fluorescence microscope and analyzed using ImageJ. Confocal images were collected using a Leica SP8-STED/FLIM/FCS Confocal and analyzed using ImageJ.
Average lamin and histone marker intensities per nuclei were quantified using an ImageJ macro. Gaussian blur, thresholding, watershed, and analyze particle functions were applied to the DAPI channel to create individual selections for each nucleus. This mask was applied to the corresponding stain image to measure the average fluorescence intensity within each nucleus.

[3] = tested on: BAM-transduced fibroblasts; assay: iN reprogramming of BAM-transduced fibroblasts with cytoskeletal and adhesion inhibitors (TUBB3+ iN cells, 2 weeks); assay type: cell-based, mouse; conditions: Y-27632 20 μM, nocodazole 0.3 μM, cytochalasin D 1 μM, jasplakinolide 0.05 μM; U0126 various doses
Description: To examine whether these changes in cell stiffness, actin structure and expression of contractility-mediating genes were involved in iN reprogramming, we evaluated the effects of disrupting the cytoskeleton using small molecule inhibitors. For these experiments, BAM-transduced fibroblasts were reprogrammed as in FIG. 1A and chemical compounds known to perturb the cytoskeleton were added to the culture medium on day 1 to evaluate their effects on the reprogramming process. […] The reprogramming efficiency was determined as the percentage of TUBB3*-iN cells normalized to the number of cells plated at 24 hours post-seeding (i.e., day 0). First, we tested whether disruption of cytoskeletal contractility could influence the direct reprogramming of fibroblasts into neurons using blebbistatin, a non-muscle myosin II inhibitor^22-24. We observed that iN cells could be derived in the absence and presence of blebbistatin (FIG. 3A). […] In particular, treatment with 10 μM blebbistatin generated the highest number of iN cells and increased the reprogramming efficiency by approximately 4.5-fold compared to the control, therefore, this concentration was used in all subsequent experiments. […] As Ascl1 has been identified as a pioneer factor for iN reprogramming and transduction of Ascl1 alone is sufficient to generate iN cells^25,26, we further investigated whether blebbistatin could influence iN conversion by Ascl1 induction.
After transduction, mouse fibroblasts were seeded onto multi-well tissue culture-treated polystyrene dishes (Falcon) coated with laminin (0.1 mg/ml, Corning) at 4,000 cells per cm^2. Twenty-four hours after seeding, the medium was replaced to MEF medium containing doxycycline (2 μg/ml, Sigma). The following day (i.e., day 1) the medium was changed to N3 medium (DMEM/F12 [GIBCO]+N2 supplement [Invitrogen]+B27 supplement [Invitrogen]+1% penicillin/streptomycin [Gibco]+ doxycycline [2 μg/ml, Sigma]) and the cultures were maintained in this medium for the duration of the experiments. For Ascl1-only reprogramming, N3 medium was further supplemented with BDNF (5 ng/ml, R&D systems) and GDNF (5 ng/ml, R&D systems) after day 7. For cytoskeletal and cell adhesion disruptions, Blebbistatin (Millipore), Y-27632 (20 μM; Cayman Chemical), Nocodazole (0.3 μM; Sigma), Cytochalasin D (1 μM; Sigma), Jasplakinolide (0.05 μM; Cayman Chemical) and PF573228 (Sigma) were administered in N3 medium on day 1 and for the first 7 days of reprogramming (unless stated otherwise) and used at the indicated concentrations. Culture medium was replenished every 2 days during reprogramming to maintain the activity of the small molecules. After culturing for the desired length (14 days for BAM and 21 days for Ascl1 only), the induced neuronal (iN) cells were analyzed and the reprogramming efficiency was determined.
The reprogramming efficiency was determined by as the percentage of TUBB3^+ iN cells in each condition normalized to the number of cells plated at 24 hours post-seeding. Epifluorescence images were collected using a Zeiss Axio Observer.D1, Zeiss Axio Observer.Z1, and ImageXpress Micro XLS System (Molecular Devices), whereas confocal images were acquired using a Zeiss LSM710 microscope and Leica SP8 Confocal Laser Scanning microscope.

histone marks = assay: Immunofluorescence of histone marks in non-transduced fibroblasts; assay type: cell-based, mouse; conditions: for euchromatin marks (AcH3, H3K4me3, H3K4me1): global, 10 μM blebbistatin or 5 μM PF573228, 2 hours, vs control; for histone trends compared with blebbistatin: other cytoskeletal compounds
Description: For immunostaining, cells were fixed with 4% paraformaldehyde (Electron Microscopy Sciences), permeabilized with 0.5% Triton-X-100 (Sigma), and blocked with 5% donkey serum (Jackson Immunoresearch) in phosphate buffered saline (PBS). For actin-cytoskeleton staining, samples were incubated with fluorescein isothiocyanate-conjugated phalloidin (Invitrogen) for 1 hour. Primary antibodies were incubated for 1 hour at room temperature or overnight at 4° C., followed by 1-hour incubation with Alexa 488 and/or Alexa 546-labeled secondary antibodies (Molecular Probes). Nuclei were stained with 4,6-diamino-2-phenylindole (DAPI) (Invitrogen).
Quantification of histone intensity per nuclei was performed using an ImageJ macro. DAPI-stained nuclei were segmented using gaussian blur, thresholding, watershed, and analyze particle functions to identify individual nuclei. This mask was applied to the corresponding stained fluorescence channel to quantify the average fluorescence intensity within each nucleus.

Cc1cccc(-c2nn(C(=S)Nc3ccccc3)cc2-c2ccnc3ccccc23)n1 [A83-01]
spatial Tuj1+ reprogramming patterns, inhibitor alone [1]: did not affect spatial Tuj1+ reprogramming patterns

COc1cc2nc(N3CCCN(C)CC3)nc(NC3CCN(Cc4ccccc4)CC3)c2cc1OC [Bix01294]
iN reprogramming efficiency [2]: partially mimicked the squeezing effect on the reprogramming efficiency | increase of iN conversion [2]: about 2 fold | nuclear deformation-induced iN reprogramming efficiency [2]: slightly increased the reprogramming efficiency compared to the squeezed-only group | H3K9me3 level (H3K9me3): specifically suppressed H3K9me3 in a dose-dependent manner

Nc1ncn([C@H]2C[C@H](O)[C@@H](CO)O2)c(=O)n1 [Decitabine]
increase of iN conversion [2]: about 2 fold

Clc1ccc(N/N=C(\c2ccccc2)c2ccccn2)nc1 [JIB-04]
iN reprogramming efficiency [2]: reduced the reprogramming efficiency compared to the control | nuclear deformation-induced iN reprogramming efficiency [2]: strikingly suppressed nuclear deformation-induced iN reprogramming | H3K9me3 level (H3K9me3): significantly increased H3K9me3 | decrease of H3K9me3 by squeezing (H3K9me3; pre-treated for 24 hours, then 7-μm channels): much less than the group without JIB-04 treatment

COc1cc(-c2cc(-c3cccc(O)c3)cnc2N)cc(OC)c1OC [K02288]
spatial Tuj1+ reprogramming patterns, inhibitor alone [1]: did not affect spatial Tuj1+ reprogramming patterns

N#CC(=C(/N)Sc1ccccc1N)/C(C#N)=C(\N)Sc1ccccc1N [U0126]
reprogramming efficiency relative to control [3]: not significantly altered

C[C@@H](N)[C@H]1CC[C@H](C(=O)Nc2ccncc2)CC1 [Y-27632]
reprogramming efficiency relative to control [3]: increased the yield of iN cells similar to blebbistatin, although to a lesser degree

C=C1[C@@H](C)[C@H]2[C@H](Cc3ccccc3)NC(=O)[C@]23[C@H](OC(C)=O)/C=C/[C@@](C)(O)C(=O)[C@@H](C)C/C=C/[C@H]3[C@@H]1O [cytochalasin D]
euchromatin marks (AcH3, H3K4me3, H3K4me1) (histone marks): decreasing euchromatin marks (e.g., AcH3) | histone trends compared with blebbistatin (histone marks): no other cytoskeletal disrupting compounds | reprogramming efficiency relative to control [3]: reduced the reprogramming efficiency relative to control; also recorded: inhibiting iN conversion

C/C1=C\[C@H](C)C[C@H](C)OC(=O)C[C@H](c2ccc(O)cc2)NC(=O)[C@@H](Cc2c(Br)[nH]c3ccccc23)N(C)C(=O)[C@H](C)NC(=O)[C@@H](C)C1 [jasplakinolide]
euchromatin marks (AcH3, H3K4me3, H3K4me1) (histone marks): decreasing euchromatin marks (e.g., AcH3) | histone trends compared with blebbistatin (histone marks): no other cytoskeletal disrupting compounds | reprogramming efficiency relative to control [3]: reduced the reprogramming efficiency relative to control; also recorded: inhibiting iN conversion

COC(=O)Nc1nc2ccc(C(=O)c3cccs3)cc2[nH]1 [nocodazole]
euchromatin marks (AcH3, H3K4me3, H3K4me1) (histone marks): decreasing euchromatin marks (e.g., AcH3) | histone trends compared with blebbistatin (histone marks): no other cytoskeletal disrupting compounds | reprogramming efficiency relative to control [3]: resulted in a reduction in the reprogramming efficiency; also recorded: inhibiting iN conversion

CCCC(CCC)C(=O)O [valproic acid]
iN reprogramming efficiency [2]: slightly increased iN reprogramming efficiency | nuclear deformation-induced iN reprogramming efficiency [2]: additive to mechanical squeezing
